Measurements published in ChEMBL document CHEMBL5728270, “Immunomodulator compounds” (2021).

Assay: Enzyme-Linked Immunosorbent Assay ELISA: 96 Well plates were coated with […] of human PD-L1 (obtained from R&D) in PBS overnight at 4° C. The wells were then blocked with 2% BSA in PBS (W/V) with 0.05% TWEEN-20 for 1 hour at 37° C. The plates were washed 3 times with PBS/0.05% TWEEN-20 and the compounds were serial diluted (1:5) in dilution medium and added to the ELISA plates. Human PD-1 and biotin 0.3 μg/mL (ACRO Biosystems) were added and incubated for 1 hour at 37° C. then washed 3 times with PBS/0.05% TWEEN-20. A second block was performed with 2% BSA in PBS (W/V)/0.05% TWEEN-20 for 10 min at 37° C. and was washed 3 times with PBS/0.05% TWEEN-20. Streptavidin-HRP was added for 1 hour at 37° C. then washed 3 times with PBS/0.05% TWEEN-20. TMB substrate was added and reacted for 20 min at 37° C. A stop solution (2 N aqueous H2SO4) was added. The absorbance was read at 450 nm using a micro-plate spectrophotometer.

IC50 [nM]	Structure (SMILES)
< 5	Cc1c(OCCCN2CCC(O)CC2)cccc1-c1cccc2c1CC[C@@H]2Oc1cc(OCc2cc(C#N)cc(C#N)c2)c(CN[C@@](C)(CO)C(=O)O)cc1Cl
< 5	Cc1c(OCCCN2CCC(O)CC2)cccc1-c1cccc2c1CC[C@@H]2Oc1cc(OCc2cncc(C#N)c2)c(CN[C@H](C(=O)O)[C@@H](C)O)cc1Cl
< 5	C[C@@](CO)(NCc1cc(Cl)c(O[C@H]2CCc3c(-c4cccc(OCCCN5CCC(O)CC5)c4Cl)cccc32)cc1OCc1cncc(C#N)c1)C(=O)O
< 5	N#Cc1cncc(COc2cc(O[C@H]3CCc4c(-c5cccc(OCCCN6CCC(F)CC6)c5Cl)cccc43)c(Cl)cc2CN[C@H]2CCOC[C@@H]2O)c1
